In patent publication US10457689B2, “Ammonium derivatives, a process for their preparation and pharmaceutical compositions containing them” (LES LABORATOIRES SERVIER, priority 2016, dated 2019):
In brackets after ≈: the same amount, converted by molar mass. Where a name gives a salt, the structure may show the parent alone.

How the values were obtained:
[1] = biological target: Mcl-1 protein (Homo sapiens, UniProt Q07820); assay: Inhibition of Mcl-1 by the fluorescence polarisation technique; type: binding; conditions: fluorescence polarisation test; read-out: IC50 (M) Mcl-LFP
Sequence of Mcl-1 protein (Q07820 whole entry): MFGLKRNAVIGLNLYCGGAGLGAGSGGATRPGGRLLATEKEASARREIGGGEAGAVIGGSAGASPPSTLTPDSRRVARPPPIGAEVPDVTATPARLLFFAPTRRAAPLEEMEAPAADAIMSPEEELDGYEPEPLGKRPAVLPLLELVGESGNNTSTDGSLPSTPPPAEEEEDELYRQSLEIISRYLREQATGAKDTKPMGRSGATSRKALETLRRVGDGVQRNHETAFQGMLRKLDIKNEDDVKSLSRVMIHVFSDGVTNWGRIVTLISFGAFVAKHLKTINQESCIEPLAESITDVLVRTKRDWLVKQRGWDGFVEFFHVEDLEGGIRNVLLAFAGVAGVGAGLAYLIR
Method: The relative, binding potency of each compound was determined via Fluorescence Polarisation (FP). The method utilised a Fluorescein labelled ligand (Fluorescein-βAla-Ahx-A-REIGAQLRRMADDLNAQY-OH; mw 2,765) which binds to the Mcl-1 protein (such that Mcl-1 corresponds to the UniProtKB® primary accession number: Q07820) leading to an increased anisotropy measured in milli-polarisation (mP) units using a reader. The addition of a compound which binds competitively to the same site as the ligand will result in a greater proportion of unbound ligand in the system indicated by a decrease in mP units.
An 11 point serial dilution of each compound was prepared in DMSO and 2 μl transferred into flat bottomed, low binding, 384-well plate (final DMSO concentration 5%), 38 μl of buffer (10 mM 4-(2-hydroxyethyl)-1-piperazineethanesolfonic acid [HEPES], 150 mM NaCl, 0.05% Tween 20, pH 7.4), containing the Fluorescein labelled ligand (final concentration 1 nM) and Mcl-1 protein (final concentration 5 nM) was then added.
Assay plates were incubated ˜2 hours at room temperature before FP was measured on a […] Synergy2 reader (Ex. 528 nm, Em. 640 nm, Cut off 510 nm) and mP units calculated. The binding of increasing doses of test compound was expressed as a percentage reduction in mP compared to a window established between ‘5% DMSO only’ and ‘100% inhibition’ controls. 11-point dose response curves were plotted with XL-Fit software using a 4-Parameter Logistic Model (Sigmoidal Dose-Response Model) and the inhibitory concentrations that gave a 50% reduction in mP (IC50) were determined.

[2] = system: H929 multiple myeloma tumour line; assay: In vitro cytotoxicity (MTT); type: cell-based; conditions: 48 hours exposure
Method: The cytotoxicity studies were carried out on the H929 multiple myeloma tumour line.
The cells are distributed onto microplates and exposed to the test compound for 48 hours.
The cell viability is then quantified by a colorimetric assay, the Microculture Tetrazolium Assay (Carmichael et al. Cancer Res. 1987, 47, 936-942).

[3] = Solubility test Method 2; type: physicochemical; conditions: Method 2: aqueous phosphate buffer 67.7 mM, pH 7.4, room temperature
Method: Samples (40 mg/mL) were diluted in aqueous phosphate buffer (67.7 mM, with pH adjusted at 7.4) used for in vivo studies. Samples were shaked at room temperature, then filtered. The solubilized fraction was quantified by LC-MS-MS analysis.

[4] = Solubility test Method 1; type: physicochemical; conditions: Method 1: 30% propylene glycol in water, shaked 72 hours at room temperature
Method: Sample solutions (around 16.7 mg/ml) in propylene glycol were diluted with water (30% propylene glycol). Then, samples were shaked for 72 hours at room temperature. After shaking period, samples were centrifuged, then the liquid phase was filtered and analyzed using HPLC coupled to UV detection. To determine the actual concentration a 5-point calibration curve was established.

[5] = Homo sapiens, NCI-H929, H929 cells

Molecule	IC50 [1]	IC50 ([2]; H929 cells)	IC50 [2, 5]	solubility [3]	solubility [4]
COc1ccccc1-c1nccc(COc2ccccc2CC(Oc2ncnc3sc(-c4ccc(F)cc4)c(-c4ccc(OCCN5CC[N+](C)(COC(C)=O)CC5)c(Cl)c4C)c23)C(=O)O)n1 [Example 17, 1-[(acetyloxy)methyl]-4-[2-(4-{(5Sa)-4-[(1R)-1-carboxy-2-(2-{[2-(2-methoxyphenyl)pyrimidin-4-yl]methoxy}phenyl)ethoxy]-6-(4-fluorophenyl)thieno[2,3-d]pyrimidin-5-yl}-2-chloro-3-methylphenoxy)ethyl]-1-methylpiperazin-1-ium trifluoroacetate]	1.12e-09 M	2.15 nM	–	–	–
COc1ccccc1-c1nccc(COc2ccccc2C[C@@H](Oc2ncnc3sc(-c4ccc(F)cc4)c(-c4ccc(OCCN5CC[N+](C)(COC(=O)C(C)(C)C)CC5)c(Cl)c4Br)c23)C(=O)O)n1 [Example 32, 4-[2-(3-bromo-4-{(5Sa)-4-[(1R)-1-carboxy-2-(2-{[2-(2-methoxyphenyl)pyrimidin-4-yl]methoxy}phenyl)ethoxy]-6-(4-fluorophenyl)thieno[2,3-d]pyrimidin-5-yl}-2-chlorophenoxy)ethyl]-1-{[(2,2-dimethylpropanoyl)oxy]methyl}-1-1-methyl piperazin-1-ium trifluoroacetate]	1.77e-09 M	2.11 nM	–	–	–
COc1ccccc1-c1nccc(COc2ccccc2CC(Oc2ncnc3sc(-c4ccc(F)cc4)c(-c4ccc(OCCN5CC[N+](C)(COP(=O)([O-])O)CC5)c(Cl)c4Br)c23)C(=O)O)n1 [Example 5, {4-[2-(3-bromo-4-{(5Sa)-4-[(1R)-1-carboxy-2-(2-{[2-(2-methoxyphenyl)pyrimidin-4-yl]methoxy}phenyl)ethoxy]-6-(4-fluorophenyl)thieno[2,3-d]pyrimidin-5-yl}-2-chlorophenoxy)ethyl]-1-methylpiperazin-1-ium-1-yl}methyl hydrogen phosphate]	1.06e-09 M	–	55.4 nM	–	–
COc1ccccc1-c1nccc(COc2ccccc2CC(Nc2ncnc3sc(-c4ccc(F)cc4)c(-c4ccc(OCCN5CC[N+](C)(COP(=O)([O-])O)CC5)c(Cl)c4C)c23)C(=O)O)n1 [Example 8, N-[(5Sa)-5-{3-chloro-4-[2-(4-{[(hydroxyphosphinato)oxy]methyl}-4-methylpiperazin-4-ium-1-yl)ethoxy]-2-methylphenyl}-6-(4-fluorophenyl)thieno[2,3-d]pyrimidin-4-yl]-2-{[2-(2-methoxyphenyl)pyrimidin-4-yl]methoxy}-D-phenylalanine]	9.48e-10 M	–	229 nM	–	–
COc1ccccc1-c1nccc(COc2ccccc2CC(Oc2ncnc3sc(-c4ccc(F)cc4)c(-c4ccc(OCC[N+](C)(C)COP(=O)([O-])O)c(Cl)c4C)c23)C(=O)O)n1 [Example 11, {4-[2-(4-{(5Sa)-4-[(1R)-1-carboxy-2-(2-{[2-(2-methoxyphenyl)pyrimidin-4-yl]methoxy}phenyl)ethoxy]-6-(4-fluorophenyl)thieno[2,3-d]pyrimidin-5-yl}-2-chloro-3-methylphenoxy)ethyl](dimethyl)ammonio}methyl hydrogen phosphate]	1.06e-09 M	–	39.3 nM	> 35 mg/mL	–
CCN(CC)C(=O)OC[N+]1(C)CCN(CCOc2ccc(-c3c(-c4ccc(F)cc4)sc4ncnc(OC(Cc5ccccc5OCc5ccnc(-c6ccccc6OC)n5)C(=O)O)c34)c(Br)c2Cl)CC1 [Example 27, 1-[2-(3-bromo-4-{(5Sa)-4-[(1R)-1-carboxy-2-(2-{[2-(2-methoxyphenyl)pyrimidin-4-yl]methoxy}phenyl)ethoxy]-6-(4-fluorophenyl)thieno[2,3-d]pyrimidin-5-yl}-2-chlorophenoxy)ethyl]-1-{[(diethylcarbamoyl)oxy]methyl}-1-methylpiperazin-1-ium trifluoroacetate]	1.17e-09 M	1900 nM	–	–	–
COc1ccccc1-c1nccc(COc2ccccc2C[C@@H](Oc2ncnc3sc(-c4ccc(F)cc4)c(-c4ccc(OCCN5CCN(C)CC5)c(Cl)c4C)c23)C(=O)O)n1 [(2R)-2-{[(5Sa)-5-{3-chloro-2-methyl-4-[2-(4-methylpiperazin-1-yl)ethoxy]phenyl}-6-(4-fluorophenyl)thieno[2,3-d]pyrimidin-4-yl]oxy}-3-(2-{[2-(2-methoxyphenyl)pyrimidin-4-yl]methoxy}phenyl)propanoic acid, reference compound]	–	–	–	–	63.3 µM (≈ 55.4 µg/mL)
CCOC(=O)OC[N+]1(C)CCN(CCOc2ccc(-c3c(-c4ccc(F)cc4)sc4ncnc(OC(Cc5ccccc5OCc5ccnc(-c6ccccc6OC)n5)C(=O)O)c34)c(C)c2Cl)CC1 [Example 18, 4-[2-(4-{(5Sa)-4-[(1R)-1-carboxy-2-(2-{[2-(2-methoxyphenyl)pyrimidin-4-yl]methoxy}phenyl)ethoxy]-6-(4-fluorophenyl)thieno[2,3-d]pyrimidin-5-yl}-2-chloro-3-methylphenoxy)ethyl]-1-{[(ethoxycarbonyl)oxy]methyl}-1-methylpiperazin-1-ium]	9.48e-10 M	–	1.74 nM	–	–
COc1ccccc1-c1nccc(COc2ccccc2CC(Oc2ncnc3sc(-c4ccc(F)cc4)c(-c4ccc(OCCN5CC[N+](C)(Cc6oc(=O)oc6C)CC5)c(Cl)c4C)c23)C(=O)O)n1 [Example 22, 4-[2-(4-{(5Sa)-4-[(1R)-1-carboxy-2-(2-{[2-(2-methoxyphenyl)pyrimidin-4-yl]methoxy}phenyl)ethoxy]-6-(4-fluorophenyl)thieno[2,3-d]pyrimidin-5-yl}-2-chloro-3-methylphenoxy)ethyl]-1-methyl-1-[(5-methyl-2-oxo-1,3-dioxol-4-yl)methyl]piperazin-1-ium trifluoroacetate]	9.48e-10 M	2.23 nM	–	–	–
4-[2-(4-{(5Sa)-4-[(1R)-1-carboxy-2-(2-{[2-(2-methoxyphenyl)pyrimidin-4-yl]methoxy}phenyl)ethoxy]-6-(4-fluorophenyl)thieno[2,3-d]pyrimidin-5-yl}-2-chloro-3-methylphenoxy)ethyl]-1-{[(diethylcarbamoyl)oxy]methyl}-1-methylpiperazin-1-ium trifluoroacetate [Example 19]	1.2e-09 M	1640 nM	–	–	–
COc1ccccc1-c1nccc(COc2ccccc2CC(Oc2ncnc3sc(-c4ccc(F)cc4)c(-c4ccc(OCCN5CC[N+](C)(COC(C)=O)CC5)c(Cl)c4Br)c23)C(=O)O)n1 [Example 25, 1-[(acetyloxy)methyl]-4-[2-(3-bromo-4-{(5Sa)-4-[(1R)-1-carboxy-2-(2-{[2-(2-methoxyphenyl)pyrimidin-4-yl]methoxy}phenyl)ethoxy]-6-(4-fluorophenyl)thieno[2,3-d]pyrimidin-5-yl}-2-chlorophenoxy)ethyl]-1-methylpiperazin-1-ium trifluoroacetate]	1.07e-09 M	1.95 nM	–	–	–
COc1ccccc1-c1nccc(COc2ccccc2C[C@@H](Oc2ncnc3sc(-c4ccc(F)cc4)c(-c4ccc(OCCN5CC[N+](C)(COP(=O)([O-])O)CC5)c(Cl)c4C)c23)C(=O)O)n1 [Example 1, {4-[2-(4-{(5Sa)-4-[(1R)-1-carboxy-2-(2-{[2-(2-methoxyphenyl)pyrimidin-4-yl]methoxy}phenyl)ethoxy]-6-(4-fluorophenyl)thieno[2,3-d]pyrimidin-5-yl}-2-chloro-3-methylphenoxy)ethyl]-1-methylpiperazin-1-ium-1-yl}methyl hydrogen phosphate]	1.03e-09 M	28.4 nM	–	–	≥ 4907 µM
